These compounds were tested against Aminopeptidase N (Oryctolagus cuniculus) (UniProt P15541) (assay: Inhibitory activity against rabbit kidney aminopeptidase using 10 nM of [3H]Leu-enkephalin as substrate).
Aminopeptidase N (Oryctolagus cuniculus), sequence (P15541 whole entry, looked up): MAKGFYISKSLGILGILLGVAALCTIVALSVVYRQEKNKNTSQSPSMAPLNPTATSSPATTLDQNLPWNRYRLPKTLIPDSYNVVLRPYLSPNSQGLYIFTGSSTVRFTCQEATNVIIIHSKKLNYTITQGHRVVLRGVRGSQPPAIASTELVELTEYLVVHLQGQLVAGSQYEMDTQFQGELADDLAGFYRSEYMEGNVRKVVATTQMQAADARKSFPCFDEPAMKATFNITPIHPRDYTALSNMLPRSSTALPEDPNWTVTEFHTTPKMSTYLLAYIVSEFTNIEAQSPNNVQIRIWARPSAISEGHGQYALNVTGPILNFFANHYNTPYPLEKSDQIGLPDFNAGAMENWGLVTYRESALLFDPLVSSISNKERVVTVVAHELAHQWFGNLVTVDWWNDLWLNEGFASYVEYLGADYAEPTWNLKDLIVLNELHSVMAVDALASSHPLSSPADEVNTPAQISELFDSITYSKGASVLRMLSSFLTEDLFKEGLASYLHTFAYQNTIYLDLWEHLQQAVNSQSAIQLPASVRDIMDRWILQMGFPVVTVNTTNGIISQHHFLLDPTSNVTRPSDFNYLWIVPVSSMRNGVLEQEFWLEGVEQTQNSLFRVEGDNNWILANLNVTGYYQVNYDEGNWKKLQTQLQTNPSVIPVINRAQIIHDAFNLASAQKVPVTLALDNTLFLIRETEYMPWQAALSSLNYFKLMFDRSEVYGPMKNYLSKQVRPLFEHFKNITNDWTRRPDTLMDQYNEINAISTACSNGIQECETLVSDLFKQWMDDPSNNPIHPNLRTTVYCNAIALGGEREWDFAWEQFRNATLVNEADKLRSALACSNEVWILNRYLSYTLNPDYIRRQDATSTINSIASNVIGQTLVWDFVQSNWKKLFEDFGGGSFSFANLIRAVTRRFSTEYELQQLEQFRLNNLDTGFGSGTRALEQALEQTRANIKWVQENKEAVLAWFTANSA

Structure (SMILES) | IC50 [µM]
O=C(O)CNC(=O)C(Cc1ccccc1)C(=O)NO (racemic) | 100
C[C@H](NC(=O)[C@@H](CC(=O)NO)Cc1ccccc1)C(=O)O (racemic) [(RS)-2-(2-Benzyl-3-hydroxycarbamoyl-propionylamino)-propionic acid] | 0.71
O=CN(O)C(Cc1ccccc1)C(=O)NCC(=O)O (centres undefined) [[2-(Formyl-hydroxy-amino)-3-phenyl-propionylamino]-acetic acid] | 25
O=CN(O)CC(Cc1ccccc1)C(=O)NCC(=O)O (centres undefined) [[2-Benzyl-3-(formyl-hydroxy-amino)-propionylamino]-acetic acid] | 0.85

From BindingDB's records for doi:10.1021/jm00147a007 (1985)
